Results on 12 substances are retold here after patent publication US20230338337A1, “BIOMARKERS FOR CANCER THERAPY USING MDM2 ANTAGONISTS” (OTSUKA PHARMACEUTICAL CO., LTD., priority 2019, published 2023).

One test deals with MDM2-p53 interaction (in vitro translated MDM2) (Homo sapiens (Human), UniProt Q00987). In words: MDM2-p53 interaction 96-well plate binding assay (ELISA).
Sequence of MDM2-p53 interaction (in vitro translated MDM2) (Q00987 whole entry): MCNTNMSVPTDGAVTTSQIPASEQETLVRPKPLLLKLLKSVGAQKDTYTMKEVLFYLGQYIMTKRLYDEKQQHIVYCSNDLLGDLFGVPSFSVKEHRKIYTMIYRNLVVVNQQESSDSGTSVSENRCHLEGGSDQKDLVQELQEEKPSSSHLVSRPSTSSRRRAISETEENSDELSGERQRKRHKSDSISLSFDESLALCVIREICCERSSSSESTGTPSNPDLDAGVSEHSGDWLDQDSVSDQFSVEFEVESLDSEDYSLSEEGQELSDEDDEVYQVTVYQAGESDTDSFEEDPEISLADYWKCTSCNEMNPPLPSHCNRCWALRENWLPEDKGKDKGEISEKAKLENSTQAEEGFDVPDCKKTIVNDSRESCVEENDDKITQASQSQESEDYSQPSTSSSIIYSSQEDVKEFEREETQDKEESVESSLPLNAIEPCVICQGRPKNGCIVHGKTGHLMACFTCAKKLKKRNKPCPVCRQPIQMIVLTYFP
Conditions: not given
Turning to “6-{[(1R)-1-(4-chlorophenyl)-7-fluoro-5-[1-hydroxy-1-(1-methyl-1H-pyrazol-4-yl)propyl]-3-oxo-1-[(3S)-oxolan-3-yloxy]-2,3-dihydro-1H-isoindol-2-yl]methyl}pyridine-3-carbonitrile [Example 358]”, the “MDM2 % at concentration” value worked out at 74%@0.0010.

Staying with this test, now noted: at 0.0010 μM.
Take “(3R)-3-(4-chlorophenyl)-2-[(5-chloropyrimidin-2-yl)methyl]-4-fluoro-6-{1-hydroxy-1-[trans-4-hydroxycyclohexyl]propyl}-3-methoxy-2,3-dihydro-1H-isoindol-1-one [Example 511]”: the “MDM2 % inhibition at 0.0010” value was 72%@0.0010.
For “2-[(5-chloro-3-hydroxypyridin-2-yl)methyl]-3-(4-chlorophenyl)-4-fluoro-6-[(1S)-1-hydroxy-1-(1-methylpiperidin-4-yl)propyl]-3-[(3S)-oxolan-3-yloxy]-2,3-dihydro-1H-isoindol-1-one [Example 568]”, the “MDM2 % inhibition at 0.0010” value was determined as 76%@0.0010.
On the same count and under the same terms, for “6-{[(1R)-1-(4-chlorophenyl)-7-fluoro-5-[1-(4-fluoropiperidin-4-yl)-1-hydroxypropyl]-3-oxo-1-[(3S)-oxolan-3-yloxy]-2,3-dihydro-1H-isoindol-2-yl]methyl}pyridine-3-carbonitrile [Example 546]” the value was 86%@0.0010; for “2-{[(1R)-1-(4-chlorophenyl)-7-fluoro-5-[(1R)-1-(4-fluorooxan-4-yl)-1-hydroxypropyl]-3-oxo-1-[cis-3-hydroxycyclobutoxy]-2,3-dihydro-1H-isoindol-2-yl]methyl}pyrimidine-5-carbonitrile [Example 505]”, 60%@0.0010; for “(3R)-3-(4-chlorophenyl)-2-[(5-chloropyrimidin-2-yl)methyl]-4-fluoro-6-[(1S)-1-hydroxy-1-(1-methylpiperidin-4-yl)propyl]-3-[cis-3-hydroxycyclobutoxy]-2,3-dihydro-1H-isoindol-1-one [Example 560]”, 30%@0.0010.
Consider “2-{[(1R)-1-(4-chlorophenyl)-7-fluoro-5-{1-hydroxy-1-[trans-4-hydroxycyclohexyl]propyl}-3-oxo-1-[(3S)-oxolan-3-yloxy]-2,3-dihydro-1H-isoindol-2-yl]methyl}pyrimidine-5-carbonitrile [Example 503]”, for which the “MDM2 % inhibition at 0.0010” value is 87%@0.0010.
As to “(3R)-3-(4-chlorophenyl)-2-[(5-chloropyridin-2-yl)methyl]-4-fluoro-6-[1-(4-fluoropiperidin-4-yl)-1-hydroxypropyl]-3-[(2R)-2-hydroxypropoxy]-2,3-dihydro-1H-isoindol-1-one [Example 549]”, the “MDM2 % inhibition at 0.0010” value is recorded as 85%@0.0010.

The test is the same for the next values; noted with them: at 0.010 μM.
“(3R)-3-(4-chlorophenyl)-4-fluoro-6-[1-hydroxy-1-(1-methyl-1H-pyrazol-4-yl)ethyl]-3-[(1-hydroxycyclopropyl)methoxy]-2-[(5-methoxypyridin-2-yl)methyl]-2,3-dihydro-1H-isoindol-1-one [Example 228]”: the “MDM2 % at concentration” value was found to be 61%@0.010.

Staying with this test, now noted: at 0.10 μM.
On to “(3R)-3-(4-chlorophenyl)-2-[(5-chloropyrimidin-2-yl)methyl]-4-fluoro-6-[(1R)-1-hydroxy-1-(1-methylpiperidin-4-yl)propyl]-3-[(3S)-oxolan-3-yloxy]-2,3-dihydro-1H-isoindol-1-one [Example 567]”, for which the “MDM2 % inhibition at 0.10” value was determined as 57%@0.10.
Still for that read-out and setting: to “6-{[(1R)-1-(4-chlorophenyl)-7-fluoro-5-[1-hydroxy-1-(1-methyl-1H-imidazol-4-yl)butyl]-3-oxo-1-[(3S)-oxolan-3-yloxy]-2,3-dihydro-1H-isoindol-2-yl]methyl}pyridine-3-carbonitrile [Example 473]” belongs 44%@0.10.
Turning to “(3R)-2-[(5-chloro-3-hydroxypyridin-2-yl)methyl]-3-(4-chlorophenyl)-4-fluoro-6-[1-hydroxy-1-(1-methyl-1H-imidazol-4-yl)propyl]-3-[cis-3-hydroxycyclobutoxy]-2,3-dihydro-1H-isoindol-1-one [Example 488]”, the “MDM2 % inhibition at 0.10” value came out at 56%@0.10.
